Laboratory results: PubChem BioAssay (NCI)
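These data come from cells grown in 96-well plates and exposed to compound for 48 hours at five concentrations. GI50 is the concentration that inhibits growth by half. The concentration for full growth arrest is given as TGI.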

Experiments:
Test in all cases: growth of human tumour cells (NCI), 48 h
NCI-H460 lung = tested on: NCI-H460 lung
UACC-62 melanoma = tested on: UACC-62 melanoma
COLO 205 colon = tested on: COLO 205 colon
RXF 393 renal = tested on: RXF 393 renal
EKVX NSCLC = tested on: EKVX NSCLC
OVCAR-4 ovarian = tested on: OVCAR-4 ovarian
A498 renal = tested on: A498 renal
HOP-92 NSCLC = tested on: HOP-92 NSCLC
HS 578T breast = tested on: HS 578T breast
RPMI-8226 leukemia = tested on: RPMI-8226 leukemia

SMILES	GI50 (NCI-H460 lung) [µM]	TGI (NCI-H460 lung) [µM]	GI50 (UACC-62 melanoma) [µM]	TGI (UACC-62 melanoma) [µM]	GI50 (COLO 205 colon) [µM]	TGI (COLO 205 colon) [µM]	GI50 (RXF 393 renal) [µM]	TGI (RXF 393 renal) [µM]	GI50 (EKVX NSCLC) [µM]	TGI (EKVX NSCLC) [µM]	GI50 (OVCAR-4 ovarian) [µM]	TGI (OVCAR-4 ovarian) [µM]	GI50 (A498 renal) [µM]	TGI (A498 renal) [µM]	GI50 (HOP-92 NSCLC) [µM]	TGI (HOP-92 NSCLC) [µM]	GI50 (HS 578T breast) [µM]	TGI (HS 578T breast) [µM]	GI50 (RPMI-8226 leukemia) [µM]	TGI (RPMI-8226 leukemia) [µM]
COc1ccc(-c2[nH]ncc2Nc2cc(OC)c(OC)c(OC)c2)cc1	2.68	> 63.6	0.704	69.8	1.61	6.32	1.92	> 22.3	1.93	> 49.4	5.01	> 100	2.98	> 57.4	> 62.9	> 100	1.3	4.65	1.38	5.04
CC(=O)c1c(C)c2cnc(Nc3ccc(N4CCNCC4)cn3)nc2n(C2CCCC2)c1=O	1.79	18.4	11	23.9	1.33	17.6	2.87	17.2	12.5	26.3	11.2	23.8	4.69	19.5	0.803	22.8	14.9	42.2	0.268	32.1
COc1ccc2c(c1)/C(=N/OC(C)=O)c1c-2c(OC)nc2ccccc12	> 100	> 100	> 100	> 100	> 100	> 100	77.7	> 100	> 100	> 100	58.3	> 100	> 100	> 100	22.5	82.3	48.1	> 100	> 100	> 100
CC1=C[C@@H]2c3c(c(O)c(O)c4oc5cc(O)cc(O)c5c(=O)c34)[C@@H](c3cc(O)c(O)c4oc5cc(O)cc(O)c5c(=O)c34)[C@@H]2C(C)(C)C1	1.1	8.31	1.88	5.72	2.86	11.2	5.69	17.3	5	15.6	3.26	14.7	9.07	21	1.85	6.6	3.42	21	1.96	10.3
Cn1c(I)c(C#C[Si](C)(C)C)c(=O)[nH]c1=O	19.7	41.3	6.4	19.8	1.87	3.69	0.639	1.74	10.9	24.8	1.97	3.59	16.4	30.2	1.08	2.53	2.3	7.08	1.64	4.28
CSc1ccc(C(=O)/C=C/c2ccc(Cl)cc2Cl)cc1	26.3	96.4	24.3	78.5	–	–	16.4	36.2	20.2	78.8	21.8	77.2	20.3	51.3	40.2	> 100	28.6	68.4	14.7	37.7
